Measured values published in patent US4032659A (priority 1975, dated 1977).
Read-outs that look alike come from different tables or passages of the source.

Experiments:
Herpes virus [1] = assay type: in vivo, mouse; details: oral
Herpes virus [2] = experiment: Herpes virus in eggs (chick embryo survival); assay type: in vivo, chicken eggs; details: for Deaths on day 1 / Deaths on day 3 / Deaths on day 4 / Total Deaths 4th Day / Deaths on day 2: 12 eggs
[3] = test system: Influenza Ann Arbor virus; experiment: Chemoprophylaxis of Influenza Ann Arbor (A1) virus infection in mice; assay type: in vivo, mouse
Influenza PR 8 virus = experiment: Chemoprophylaxis of Influenza PR 8 virus infection in mice; assay type: in vivo, mouse
Mengo virus = Mengo virus infection in mice; assay type: in vivo, mouse; details: oral
Text: The results are illustrated in Table 43.

Vaccinia virus [4] = assay type: in vivo; details: scarified rabbit skin
Vaccinia virus [5] = assay type: cell-based, fertile eggs; details: various concentrations
virus infections = experiment: Antiviral screening program, several viruses; details: mouse, in vivo
Neurovaccinia virus = experiment: Neurovaccinia (intracerebral) in mice; details: mouse, in vivo
[6] = test system: Influenza B Massachusetts virus; details: larger doses, different dose schedules; cited from earlier work

SMILES: NNC(N)=S [Thiosemicarbazide, thiosemicarbazide]
- No. animals surviving when 19/20 controls are dead (Herpes virus [1]; total dose 5 μg): 0
- No. animals surviving when 17/20 controls are dead (Herpes virus [1]; total dose .000005 μg): 0
- No. animals surviving when 17/20 controls are dead (Herpes virus [1]; total dose .00005 μg): 3
- Survivors (Herpes virus [1]; total dose .00005 μg): 3
- No. animals surviving after 7 days (Herpes virus [1]; total dose .0005 μg): 6
- No. animals surviving when 17/20 controls are dead (Herpes virus [1]; total dose .0005 μg): 0
- No. animals surviving after 7 days (Herpes virus [1]; total dose .005 μg): 6
- No. animals surviving when 17/20 controls are dead (Herpes virus [1]; total dose .05 μg): 0
- No. Living Longer Than Controls, total (Herpes virus [2]; all doses): 7
- Deaths on day 1 (Herpes virus [2]; dose 2 μg): 3
- Deaths on day 3 (Herpes virus [2]; dose 2 μg): 5
- Deaths on day 4 (Herpes virus [2]; dose 2 μg): 3
- Total Deaths 4th Day (Herpes virus [2]; dose 2 μg): 12
- Deaths on day 2 (Herpes virus [2]; dose 20 μg): 4
- Deaths on day 3 (Herpes virus [2]; dose 20 μg): 6
- Total Deaths 4th Day (Herpes virus [2]; dose 20 μg): 12
- Deaths on day 1 (Herpes virus [2]; dose .00005 μg): 2
- Deaths on day 2 (Herpes virus [2]; dose .00005 μg): 5
- Deaths on day 3 (Herpes virus [2]; dose .00005 μg): 2
- Total Deaths 4th Day (Herpes virus [2]; dose .00005 μg): 10
- Deaths on day 1 (Herpes virus [2]; dose .0005 μg): 2
- Deaths on day 2 (Herpes virus [2]; dose .0005 μg): 3
- Deaths on day 3 (Herpes virus [2]; dose .0005 μg): 2
- Deaths on day 4 (Herpes virus [2]; dose .0005 μg): 3
- Total Deaths 4th Day (Herpes virus [2]; dose .0005 μg): 10
- Deaths on day 1 (Herpes virus [2]; dose .005 μg): 4
- Deaths on day 2 (Herpes virus [2]; dose .005 μg): 3
- Deaths on day 3 (Herpes virus [2]; dose .005 μg): 3
- Total Deaths 4th Day (Herpes virus [2]; dose .005 μg): 10
- Deaths on day 2 (Herpes virus [2]; dose .05 μg): 3
- Deaths on day 3 (Herpes virus [2]; dose .05 μg): 5
- Total Deaths 4th Day (Herpes virus [2]; dose .05 μg): 9
- Deaths on day 1 (Herpes virus [2]; dose .5 μg): 3
- Deaths on day 2 (Herpes virus [2]; dose .5 μg): 4
- Deaths on day 3 (Herpes virus [2]; dose .5 μg): 2
- Deaths on day 4 (Herpes virus [2]; dose .5 μg): 2
- Total Deaths 4th Day (Herpes virus [2]; dose .5 μg): 11
- Survivors ([3]; oral, total dose .5 μg): 0
- protection (Influenza PR 8 virus; intraperitoneal): almost no protection
- Survivors (Influenza PR 8 virus; intraperitoneal, total dose 5 μg): 0
- Survivors (Influenza PR 8 virus; intraperitoneal, total dose .005 μg): 0
- Survivors (Influenza PR 8 virus; intraperitoneal, total dose .05 μg): 0
- Survivors (Influenza PR 8 virus; intraperitoneal, total dose .5 μg): 0
- Survivors (Influenza PR 8 virus; oral, total dose .005 μg): 3
- Survivors (Influenza PR 8 virus; oral, total dose .5 μg): 0
- Survivors (Influenza PR 8 virus; subcutaneous, total dose 5 μg): 3
- Survivors (Influenza PR 8 virus; subcutaneous, total dose .0005 μg): 0
- Survivors (Influenza PR 8 virus; subcutaneous, total dose .005 μg): 0
- Survivors (Mengo virus; total dose .0000005 μg): 0
- No. animals surviving after 6 days (Mengo virus; total dose .000005 μg): 2
- Survivors (Mengo virus; total dose .000005 μg): 1
- No. animals surviving after 6 days (Mengo virus; total dose .00005 μg): 5
- Survivors (Mengo virus; total dose .00005 μg): 1
- Survivors (Mengo virus; total dose .0005 μg): 0
- Survivors (Mengo virus; total dose .005 μg): 0
- effect on pox formation (Vaccinia virus [4]): highly significant diminution in the vaccinia pox formation
- effect on pox formation on the membrane (Vaccinia virus [5]): No effect on pox formation on the membrane could be observed
- activity (in words) (virus infections): active against Influenza PR 8, Vaccinia in the mouse tail, Mengo virus, Herpes virus in mice and eggs, Influenza virus, and Vaccinia virus in rabbits
- surviving animals (three instances, single dose level) (Neurovaccinia virus): one

SMILES: NC12CC3CC(CC(C3)C1)C2 [Amantadine, amantadine, reference compound]
- tests with survivors (of 18 tests) ([3]; 18 tests): 5
- instances of a statistically significant number of survivors (Influenza PR 8 virus; 41 tests): one single instance
- instances of increased geometric mean survival time (Influenza PR 8 virus; 41 tests): 11
- number of survivors in the single significant instance (Influenza PR 8 virus; 41 tests): 3
- activity (in words) (virus infections): inactive against all of the other viruses in the test system
- chemoprophylaxis (in words) [6]: ineffective against Influenza B Massachusetts
